Key:
EGR1 = assay: Western blotting of EGR1 expression; type: cell-based, human; conditions: BAY-treated tumor cells relative to control
Text: A wide range of enriched biological processes were detected upon genetic loss of DHODH, including myogenic differentiation, apoptosis, DNA damage response and signaling via tumor necrosis factor α (TNFα).
Protein lysates were isolated from approximately 500,000-1,000,000 cells. Pellets were rinsed with PBS and then lysed in RIPA buffer containing HALT™ protease inhibitor cocktail (ThermoFisher). Protein concentrations were quantified using the Bradford Assay (BioRad). Protein size was resolved via SDS-PAGE and then transferred to PVDF for immunoblotting. Rabbit polyclonal anti-DHODH (Cell Signaling Technologies; catalogue #80981), rabbit monoclonal anti-EGR1 (Cell Signaling Technologies; catalogue #4145), rabbit polyclonal anti-phospho-ERK1/2 Thr202/Tyr204 (Cell Signaling Technologies; catalogue #9101), rabbit monoclonal anti-phospho-4E-BP1 Thr37/46 (Cell Signaling Technologies; catalogue #2855) were used at a 1:1000 dilution. Mouse monoclonal anti-GAPDH (Abcam; catalogue #ab8245) was used at a 1:5000 dilution. For development, horse-radish peroxidase-conjugated secondary anti-mouse (BioRad; catalogue #1706516) and anti-rabbit antibodies (BioRad; catalogue #1706515) were used with BioRad Clarity ECL reagents. Quantification was performed by analyzing mean pixel density of each band and then normalizing to GAPDH loading control. […]

[1] = system: O-GlcNAc-conjugated proteins and c-Myc in HD-MB03 and SU_MB002 tumor cells; assay: Western blotting of O-GlcNAc-linked proteins and c-Myc; type: cell-based, human; conditions: HD-MB03 and SU_MB002, BAY vs vehicle
Text: Uridine metabolite depletion may impact not only the macromolecular demands of the rapidly cycling cellular phenotype identified through scRNA-seq analysis (inducing cell cycle arrest), but also the potentiation of oncogenic signaling programs. […] To determine whether reduced UDP-GlcNAc abundance influences O-GlcNAcylation of proteins and/or expression of c-Myc at the protein level, the abundance of β-O-glycosidic-linked proteins (Ser and Thr residues) and the expression of c-Myc protein in HD-MB03 and SU_MB002 tumor cells treated with BAY or its vehicle, were measured using Western blotting.
Protein lysates were isolated from approximately 500,000-1,000,000 cells. Pellets were rinsed with PBS and then lysed in RIPA buffer containing HALT™ protease inhibitor cocktail (ThermoFisher). Protein concentrations were quantified using the Bradford Assay (BioRad). Protein size was resolved via SDS-PAGE and then transferred to PVDF for immunoblotting. […] Quantification was performed by analyzing mean pixel density of each band and then normalizing to GAPDH loading control. […]

[2] = system: SU_MB002 cells genomic DNA; assay: Differential methylation analysis (Illumina EPIC array); type: cell-based, human
Description: Illumina Human Infinium MethylationEPIC (EPIC) BeadChip (Illumina, CA, USA) array was performed at The Centre for Applied Genomics, The Hospital for Sick Children (Toronto) using the manufacturer's standard protocol.
Raw IDAT files (annotation: ilm10b4.hg19) were processed using R (Version 4.1.2) and quality control and normalization was performed using minfi^76. Intensity and density plots were generated, and no samples were removed from the analysis as the mean detection p-values for all probed genomic positions were <0.01 for each sample. Probes with mean detection p-values >0.01 across all samples were excluded. Probes mapping sex chromosomes, single nucleotide polymorphisms (SNPs), and cross-hybridisation probes were removed. Quantile normalization was performed, and density plots were generated before and after normalization. Differential analysis was completed with beta values of 768467 CpGs for 8 samples comparing BAY to DMSO at 48 h and 72 h using limma^77. P-values were adjusted for False Discovery Rate (FDR) using Benjamini and Hochberg method, and a 10% FDR and log FC of >|0.1| cut-off was used.
Differentially methylated positions (DMPs) were annotated using the USCS (UCSC_RefGene_Name, UCSC_RefGene_Group and Relation_to_Island) from the Infinium MethylationEPIC Manifest. The analysis was performed focusing on DMPs within promoter islands (considering TSS1500, TSS200, 5′UTR and 1st exon as promotor regions). Enrichment analysis of unique genes (using UCSC RefGene Name) identified within DMPs at promoter islands was performed using Enrichr (ENCODE TF ChIP-seq 2015)^43.

[3] = Pharmacokinetic analysis of BAY2402234 in plasma and brain by LC-MS; type: in vivo; conditions: healthy mice undergoing treatment
Description: In parallel to these experiments, subcutaneous flank xenografts were engrafted into two cohorts of mice, which were treated with the vehicle or R2. […] To investigate the pharmacokinetics of BAY in vivo, its concentration in plasma and brain tissues of healthy mice was directly quantified using an LC-MS approach. BAY was detected in both brains and plasma of mice undergoing treatment, however the plasma concentrations exceeded those of the brain by approximately 10-fold (FIG. 5H-I). To determine whether treatment with BAY affects de novo pyrimidine biosynthesis in vivo, changes in pyrimidine metabolism were measured in the brain in comparison to tumor tissues from the flank (FIG. 5J-K). Although BAY treatment impacted de novo pyrimidine metabolism in vivo in both brain and tumor tissues, with a similar pattern observed in vitro (FIG. 4A), the effect size was stronger in peripheral tumor tissue in comparison to brain tissue. Such findings further reflect the limited capacity for BAY to accumulate within the brain.
Standards and samples were extracted by the addition of organic solvent, containing the internal standard (IS), for protein precipitation. […] Brains were analyzed similarly, with 20 μL of sample transferred to 180 μL of IS solution prior to analysis via LC-MS.

## CCn1c(CO)nn(-c2cc(O[C@@H](C)C(F)(F)F)c(C(=O)Nc3c(F)cccc3Cl)cc2F)c1=O [BAY2402234]
EGR1
  EGR1 protein expression: upregulated at the protein level
[1]
  abundance of O-GlcNAc-conjugated proteins: global reduction
  c-Myc protein expression: significant reduction
[2]; 48 h
  DMPs in promoter islands: 2/18
[2]; 48 h of treatment
  differentially methylated positions (DMPs), BAY vs vehicle: 18
[2]; 72 h
  DMPs in promoter islands: 123/751
[2]; 72 h of treatment
  differentially methylated positions (DMPs), BAY vs vehicle: 751
[3]
  plasma concentration relative to brain concentration: approximately 10 fold
